{"source": "paper PMC4422128", "about": "“Discovery of sea urchin NGFFFamide receptor unites a bilaterian neuropeptide family” (Open Biology, 2015)", "origin": "cited, not measured here", "key": {"[1]": {"test_system": "NPSR-type protein in Drosophila", "excerpt": "Furthermore, the ligand that activ ..."}, "crab hearts": {"test_system": "crab hearts", "parameters": "method as in PMID 16593803"}, "arthropods": {"test_system": "arthropods", "details": "insects (b4)", "excerpt": "Furthermore, the ligand that activ ... || Our discovery that the NPS/CCAP-type receptor in the sea urchin S. purpuratus is activated by the NG peptide NGFFFamide provides a basis for investigation of the physiological roles of NG peptides in deuterostomian invertebrates. This will provide new insights into the evolution of the physiological and behavioural functions of NPS/NG peptide/CCAP-type neuropeptides in the animal kingdom. Based upon what is currently known, a common theme seems to be a role in control of behaviours that are associated with a heightened state of arousal. Thus, NPS causes anxiolysis and arousal in mammals, ..."}, "VRR1/GPR154 (NPSR)": {"test_system": "VRR1/GPR154 (NPSR)", "parameters": "method as in PMID 15312648", "details": "purified from brain extracts"}, "rodents": {"test_system": "rodents", "details": "rodents (b3); mammals", "excerpt": "This will provide new insights into the evolution of the physiological and behavioural functions of NPS/NG peptide/CCAP-type neuropeptides in the animal kingdom. Based upon what is currently known, a common theme seems to be a role in control of behaviours that are associated with a heightened state of arousal. Thus, NPS causes anxiolysis and arousal in mammals, ..."}}, "note": "“Also recorded” adds a separate entry of the source. Positions of bridges follow the written chain, without caps; N, C: chain ends. No end group written: not given here."}
{"substance": "PFCNAFTGC-NH2 (disulfide 3-9 (inferred)) [CCAP, crustacean cardioactive peptide]", "values": [{"measurement": "activation of NPSR-type protein in Drosophila", "setting": "[1]", "result": "activates the NPSR-type protein in Drosophila"}, {"measurement": "effect on crab hearts", "setting": "crab hearts", "result": "excitatory effect on crab hearts"}, {"measurement": "control/activation of ecdysis", "setting": "arthropods", "result": "activates the ecdysis motor programme; also recorded: controls ecdysis behaviour in insects"}]}
{"substance": "SFRNGVGTGMKKTSFQRAKS [NPS, neuropeptide-S]", "values": [{"measurement": "ligand activity at VRR1/GPR154, NPS", "setting": "VRR1/GPR154 (NPSR)", "result": "endogenous ligand"}, {"measurement": "physiological action of NPS: anxiety", "setting": "rodents", "result": "anxiolytic-like action; also recorded: anxiolysis"}, {"measurement": "physiological action of NPS: arousal", "setting": "rodents", "result": "causing arousal"}]}
